# Assay results published in US11052065B2, “Compositions and methods for treating cancer with a combination of programmed death receptor (PD-1) antibodies and a CXCR2 antagonist” (Merck Sharp & Dohme Corp., priority 2017, dated 2021).
# Test system: B16-F10 melanoma tumor
# Assay: Anti-tumor efficacy in mouse B16-F10 melanoma syngeneic tumor model
# Type: in vivo, C57Bl/6 mice
# Conditions: single agent treatment groups (navarixin 300 mg/kg bid + isotype control; anti-PD-1 10 mg/kg + vehicle); 12 mice per group; FIGS. 3 and 4
# Protocol: The combination anti-tumor efficacy of a CXCR2 antagonist and anti-mouse PD-1 antibody muDX400 was assessed in the B16-F10 melanoma tumor model, syngeneic to the C57Bl/6 strain. This experiment compared the anti-tumor response of tumor-bearing mice to treatment with one of three regimens: monotherapy with a murine anti-mouse PD-1 monoclonal antibody (Anti-PD-1), monotherapy with a CXCR2 antagonist (navarixin) and combination therapy with these two agents administered concurrently.
# Tumor-bearing mice for this study were initiated by implanting 0.4×10^6 log-phase and sub-confluent B16-F10 cells on the right lower dorsal flank of 7-8 week old female C57Bl/6 mice with an average body weight of 18 grams. When the mean tumor volume in these mice reached ˜70 cubic mm (50 mm^3-80 mm^3), the tumor-bearing mice were randomized to 5 treatment groups of 12 mice per group:
# (1) Isotype Control+Vehicle;
# (2) Isotype Control+Navarixin (bid);
# (4) Anti-PD-1+Navarixin (bid) and;
# (5) Anti-PD-1+Navarixin (qd).
# The monoclonal antibody against murine PD-1 was of the isotype IgG1. The isotype control was a mouse monoclonal antibody specific for adenoviral hexon 25 and was of the isotype IgG1. […] The tumor volume was assessed using Vernier calipers.
smiles,measurement,value
"CC[C@@H](Nc1c(Nc2cccc(C(=O)N(C)C)c2O)c(=O)c1=O)c1ccc(C)o1 [navarixin, 2-hydroxy-N,N-dimethyl-3-{2-[[(R)-1-(5-methylfuran-2-yl)propyl]amino]-3,4-dioxocyclobut-1-enylamino}benzamide]",complete and partial regressions,not observed
